Laboratory results published in patent US20190275145A1, “PARTICULATE VACCINE FORMULATIONS” (PDS BIOTECHNOLOGY CORPORATION, priority 2011, published 2019).

System: HPV-positive tumors (TC-1 cells)
Assay: Tumor regression efficacy of R-DOTAP/S-DOTAP with HPV-16 E7 peptide antigen (encapsulated or micelles) in TC-1 tumor-bearing mice
Conditions: mouse, in vivo
Method: Subcutaneous HPV-positive tumors were established in mice by injecting […] TC-1 cells into the flank of each mouse on day 0. On day 6, the mice received a single subcutaneous injection of the formulations in a 0.10 ml injection.
The anti-tumor efficacy of vaccine formulations can be evaluated by evaluating tumor regression. In this example, the vaccine formulation comprises cationic lipid nanoparticles and a peptide antigen assembly in a tubular structure. Furthermore, the exemplary cationic lipid in the present example is R-DOTAP and the exemplary antigen assembly is an HPV-16 E7 micelle.
In this example, H-2Db restricted CTL epitope (amino acid 49-57, RAHYNIVTF [SEQ. ID. NO. 1]) derived from HPV 16 E7 protein was extended to amino acids 43-57, GQAEPDRAHYNIVTF, [SEQ. ID. No. 2]. SEQ. ID. No. 2 was then further extended with the amino acids KSS, and a hydrophobic palmitoyl chain was attached to the elongated peptide.
However, formulating the peptide antigen sequence into a particulate structure comprised only of SEQ. ID. No. 3 allows higher doses of the antigen to be delivered compared to delivery via a cationic lipid adjuvant delivery system. Thus, an effective means of overcoming the weak antigenicity of the peptide can be obtained.
To evaluate this approach, HPV-positive tumors were established as described in Example 3 above. […]

Sequence	antigenicity when formulated and evaluated
GQAEPDRAHYNIVTF (listed as Homo sapiens) [SEQ. ID. No. 2, HPV 16 E7 amino acids 43-57]	weak antigen
RAHYNIVTF (listed as Homo sapiens) [SEQ. ID. No. 1]	weak antigen
